Assay in all cases: NCI tumour cell line growth inhibition, 48 h
In experiment [1] the test system is HT29 colon.
Experiment [2] relates to COLO 205 colon.
Experiment [3] relates to HOP-92 NSCLC.
In experiment [4] the test system is SK-MEL-28 melanoma.
Experiment [5] has as its system CAKI-1 renal.
Experiment [6] relates to SF-539 CNS.
The subject of experiment [7] is TK-10 renal.
Experiment [8] concerns SK-MEL-2 melanoma.
Experiment [9] concerns PC-3 prostate.

Each structure is given as a SMILES string.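 Test compounds were applied to cells in 96-well plates for 48 hours at 5 doses. Abbreviation: GI50, concentration required for 50% inhibition of growth. At the TGI there is no net growth.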

`Cc1c(C)c2ccc3oc4ccccc4c3c2oc1=O`: the TGI in experiment [1], in experiment [2], in experiment [3], in experiment [4], in experiment [5] and in [6] was above 100 µM each time. The TGI in [7] is above 100 µM.
For the molecule `C=CCC1(CN(C)C)CC/C(=C\c2ccc(OC)cc2)C1=O` (centres undefined), the TGI in experiment [1], in experiment [2], in [3], in experiment [4], in experiment [8] and in experiment [6] was above 100 µM throughout. The same molecule returned a TGI in experiment [7] above 100 µM.
Take `CC(C)N(C(=O)C12C3C4C5(C#N)C3C1(C#N)C5C42C#N)C(C)C` (centres undefined): the TGI in experiment [1], in [2], in experiment [4], in experiment [8], in [6] and in experiment [7] was above 100 µM throughout.
Take `COC1CCC(OS(C)(=O)=O)C(CO)O1` (centres undefined): the TGI in experiment [1], in experiment [3], in experiment [4], in experiment [8], in experiment [6] and in experiment [7] was above 100 µM throughout.
As to `C=C(c1ccc(OC)c(/C=C/C(=O)c2ccc3c(c2)OCO3)c1)c1cc(OC)c(OC)c(OC)c1`, the GI50 is 2.98 µM in [1]; 4.15 µM in experiment [2]; 2.91 µM in experiment [9]; 1780 nM in experiment [3]; 4.25 µM in [8]; 3020 nM in experiment [5]. Further, the GI50 is 2360 nM in experiment [6] and 4.79 µM in experiment [7]. Besides, the TGI was 10.4 µM in experiment [1]; above 100 µM in experiment [2]; above 100 µM in [9]; above 100 µM in experiment [3]; above 100 µM in experiment [8]; above 100 µM in experiment [5]. For the same molecule, the TGI is 7.24 µM in [6] and above 100 µM in experiment [7].
As for `CSc1ccc2c(cc1=O)[C@@H](NC(=O)c1cccc([N+](=O)[O-])c1)CCc1cc(O)c(O)c(O)c1-2`, the TGI in [1], in [2], in experiment [3], in experiment [4], in experiment [8] and in experiment [5] was above 100 µM each time. In addition, the TGI is 62.9 µM in experiment [6] and above 100 µM in [7].
`C=CN(C(=O)N1CCN(c2cc3c(cc2F)c(=O)c(C(=O)O)cn3C2CC2)CC1)c1nc(-c2ccc(OC)cc2)cs1`: the GI50 is 3.42 µM in experiment [1]; 2.54 µM in experiment [2]; 3.65 µM in experiment [9]; 2450 nM in experiment [3]; 4.26 µM in experiment [4]; 2.59 µM in experiment [8]. For the same molecule, the GI50 in experiment [5] is 2840 nM; in experiment [6], 2800 nM; in experiment [7] it was 5.23 µM. The TGI is above 100 µM in [1]; 6.59 µM in experiment [2]; above 100 µM in experiment [9]; 5.57 µM in experiment [3]; above 100 µM in experiment [4]; 5.21 µM in [8]. The TGI in [5] was 18.3 µM; in experiment [6], 7.78 µM; in experiment [7], 23.7 µM.
For `Cc1ccc(C)c(N2C(=O)C(=O)C(c3nc4ccccc4s3)/C(=N/N)C2=O)c1` (centres undefined), the TGI in experiment [1], in experiment [2], in experiment [3], in [4], in [8] and in [5] was above 100 µM in each case. Further, the TGI in [6] and in [7] was above 100 µM throughout.
For `NC(=O)NNC(=O)CCn1[nH]c(=O)c(Cl)c(Cl)c1=O`, the TGI in experiment [1], in [2], in experiment [3], in [4], in [8] and in experiment [5] was above 100 µM in each case. Further, the TGI in experiment [7] is above 100 µM.
For `CC1=N/C(=C/c2ccc3c(c2)OCO3)C(=O)O1`, the TGI in experiment [1], in experiment [2], in [3], in [4], in experiment [8] and in [5] was above 100 µM in each case. The TGI in experiment [6] and in experiment [7] was above 100 µM in each case.
Regarding `CCN(CC)CCCNc1nccc2c(C)c3c(cc12)c1cnccc1n3C`, the TGI in experiment [1] turned out to be 1.02 µM; in experiment [2], 1.4 µM; in experiment [4] it was 1.47 µM; in [5], 1.03 µM; in [6], 0.609 µM; in [7], 3.26 µM.
Take `O=C1C=C(Nc2ccc(Cl)cc2Cl)c2ccccc2C1=O`: the TGI was above 100 µM in [1]; above 100 µM in [2]; 56.5 µM in [3]; above 100 µM in experiment [4]; 60.8 µM in [8]; above 100 µM in [5]. Moreover, the TGI in experiment [6] and in experiment [7] was above 100 µM throughout.
For the molecule `COC(=O)c1cc2c(=O)n(C)c3ccccc3n2c1C(=O)OC`, the TGI in experiment [1], in experiment [2], in experiment [3], in experiment [4], in experiment [8] and in experiment [5] was above 100 µM throughout. The TGI in experiment [6] was determined as 75.8 µM; in experiment [7], 77.4 µM.
For `C=C[C@@H](C)[C@]1(C(=O)OC)CCCC12OCCO2`, the TGI in [1], in experiment [2], in experiment [3], in experiment [4], in experiment [8] and in [5] was above 100 µM each time. For the same molecule, the TGI in experiment [6] and in [7] was above 100 µM throughout.
As to `CCOC(OC(C)=O)[C@@H]1C=C[C@H](C)N(c2ccc([N+](=O)[O-])cc2)O1` (some centres undefined), the TGI worked out at 11.4 µM in experiment [1]; 27.7 µM in experiment [2]; 16.2 µM in experiment [3]; 9.62 µM in experiment [4]; 13.5 µM in experiment [8]; 24.3 µM in [5]. Further, the TGI in experiment [6] came to 8.44 µM; in [7], 14 µM.

Source of the values: PubChem BioAssay (NCI).
